Test results taken from US9593149B2, “Amylin and calcitonin receptor agonist” (Novo Nordisk A/S, priority 2014, dated 2017).
pEC50, pIC50: −log10 of the molar value. Values after ≈ are worked out from the molar mass of the structure shown. Numbered stars: 1 amine (or outer) side, 2 acyl side, 3 side chain; on linkers, the order of the positions; unused ones are H or OH. Peptide text beside a SMILES is read from it. * marks the point of attachment. C18 diacid = O=C(O)CCCCCCCCCCCCCCCCC(=O)*; γGlu = O=C(O)[C@H](CCC(=O)[*:2])N[*:1]

Columns and labels:
[1] = molecular target: T1, human calcitonin receptor, BHK tk'ts 13 cells (Homo sapiens, UniProt P30988); experiment: Assay (VIIa) binding to the human calcitonin receptor (whole cell); conditions: read-out: hCT-R binding IC50
T1 construct: expressed in transfected cells; host or cells: BHK tk'ts 13
T1 sequence (P30988 25-474): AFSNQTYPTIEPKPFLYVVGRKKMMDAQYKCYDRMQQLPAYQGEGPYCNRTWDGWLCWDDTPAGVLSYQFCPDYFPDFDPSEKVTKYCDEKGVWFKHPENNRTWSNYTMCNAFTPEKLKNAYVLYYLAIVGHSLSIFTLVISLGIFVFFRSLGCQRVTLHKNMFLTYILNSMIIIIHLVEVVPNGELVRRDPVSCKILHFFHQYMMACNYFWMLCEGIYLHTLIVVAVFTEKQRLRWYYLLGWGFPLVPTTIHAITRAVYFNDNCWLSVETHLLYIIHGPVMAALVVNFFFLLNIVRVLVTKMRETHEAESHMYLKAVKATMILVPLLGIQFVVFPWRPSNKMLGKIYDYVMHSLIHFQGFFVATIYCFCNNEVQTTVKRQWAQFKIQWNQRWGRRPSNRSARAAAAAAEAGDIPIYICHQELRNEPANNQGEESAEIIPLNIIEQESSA
Experimental: Assay (VIIa)—Determination of Binding to the Human Calcitonin Receptor (Whole Cell Binding)
The binding assay was performed using a BHK tk'ts 13 cell line was stably transfected with the human calcitonin receptor, and a CRE-responsive luciferase reporter gene.
The day before the assay the cells were Seeded into Poly-D-Lysin coated 384W Opaque White, BD BioCoat plates (10000 cells/well) and Incubated overnight at 37° C., 5% CO2, 95% humidity. Then, the cells were washed in HBSS (4° C.), and incubated overnight at 4° C. in a binding buffer containing test compounds, 50 pM [125I]-human calcitonin, media w/o phenol red, 500 ml 0.1% ovalbumin (5 ml 10% ovalbumin) 10 mM Hepes (5 ml 1M) 1× Glutamin (5 ml 100×) 1% P/S (5 ml 100%) Complete (1 tablet/50 ml) 0.1% Pluronic F68®. The morning after, the plates were washed three times in HBSS (4° C.), and lyzed in Lysis buffer (0.1 M NaOH), 1% SDS. Scintillation cocktail (MicroScint40®) was added and the plates were shaken at 500 rpm for a short period. The plate was incubated at room temperature in the dark for 1 hour and Read on a TopCounter™ (Packard). The IC50 was calculated using (one site binding competition analysis) GraphPad Prism5 as a measure of receptor affinity. Assay (VIII)—Determination of Binding to the Rat Calcitonin Receptor

[2] = molecular target: T2, human amylin receptor (human calcitonin receptor + human RAMP3), BHK tk'ts 13 cells (Homo sapiens, UniProt O60896+P30988); experiment: Assay (Va) binding to the human amylin receptor (whole cell); conditions: read-out: hAmylin-R binding IC50
T2 construct: expressed in transfected cells; host or cells: BHK tk'ts 13
Experimental: The day before the assay the cells were Seeded into Poly-D-Lysin coated 384W Opaque White, BD BioCoat plates (10000 cells/well) and Incubated overnight at 37° C., 5% CO2, 95% humidity.

[3] = molecular target: T3, human amylin 3(a) receptor (human calcitonin receptor + RAMP-3), BHK570 cells (Homo sapiens, UniProt O60896+P30988); experiment: Assay (II)b functional CRE-luciferase assay without albumin, human amylin receptor; format: cell-based; conditions: Tested without HSA; read-out: hAmylin-R funct. EC50
T3 construct: host or cells: BHK570
Summary of the method: (§1)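 BHK570 cells stably expressing human calcitonin receptor with CRE-luciferase reporter, plus RAMP-3 for the amylin 3(a) line. Cells stimulated 3 hours at 37 °C in albumin-free assay medium (0.1% ovalbumin, 10 mM Hepes pH 7.4); cAMP-driven luciferase read by luminescence.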

[4] = molecular target: T4, human calcitonin (a) receptor, BHK570 cells (Homo sapiens, UniProt P30988); experiment: Assay (II)b functional CRE-luciferase assay without albumin, human calcitonin receptor; format: cell-based; conditions: Tested without HSA; read-out: hCTR funct. EC50
T4 construct: host or cells: BHK570
T4 sequence (P30988 25-474): T1 sequence (P30988 25-474)
Summary of the method: as §1

[5] = Assay (IV) determination of solubility; format: physicochemical
Experimental: Assay (IV)—Determination of Solubility
The mimylin peptide was dissolved in water at ˜500 nmol/ml and mixed 1:1 with a series of buffers (100 mM glycylglycine pH 3.0, 100 mM glycylglycine pH 4.0, 100 mM glycylglycine pH 5.0, 100 mM bistrispropane pH 6.0, 100 mM bistrispropane pH 6.5, 100 mM bistrispropane pH 7.0, 100 mM bistrispropane pH 7.5, 100 mM bistrispropane pH 8.0).

[6] = molecular target: T3, human amylin 3(a) receptor (human calcitonin receptor + RAMP-3), BHK570 cells; experiment: Assay (II)a functional CRE-luciferase assay with albumin, human amylin receptor; format: cell-based; conditions: Tested with HSA; read-out: hAmylin-R funct. EC50
From the text: Assay(II)a—Human Calcitonin and Amylin Receptor Assay
1. Luciferase Assay Outline
Activation of calcitonin and amylin (co-expression of calcitonin receptor and receptor activity modifying proteins (RAMP)) receptors lead to increased intracellular concentrations of cAMP. Consequently, transcription is activated by promoters containing multiple copies of the cAMP response element (CRE). It is thus possible to measure amylin activity by the use of a CRE luciferase reporter gene introduced into BHK cells also expressing calcitonin or amylin receptors.
2. Construction of Calcitonin (a)—and Amylin 3(a)—Receptor/CRE-Luc Cell Line.
A BHK570 cell line was stably transfected with the human calcitonin receptor and a CRE-responsive luciferase reporter gene. The cell line was further transfected with RAMP-3, using standard methods. This turns the calcitonin receptor into an amylin 3(a) receptor. Methotrexate, Neomycin, and Hygromycin are selection markers for luciferase, the calcitonin receptor, and RAMP-3, respectively.
To perform activity assays, BHK calcitonin (a) receptor- or amylin 3(a)-receptor/CRE-luc cells were seeded in white 96 well culture plates at a density of about 20.000 cells/well. […] After incubation overnight at 37° C. and 5% CO2, the growth medium was replaced by 50 μl/well assay medium (DMEM (without phenol red), Glutamax™, 10% FBS, and 10 mM Hepes, pH 7.4). Further, 50 μl/well of standard or sample in assay buffer were added.
After 3 hours incubation at 37° C. and 5% CO2, the assay medium with standard or sample were removed and replaced by 100 μl/well PBS. Further, 100 μl/well LucLite™ was added. The plates were sealed and incubated at room temperature for 30 minutes. Finally, luminescence was tested on a TopCounter (Packard) in SPC (single photon counting) mode.

T3 sequence (O60896 24-148, one chain of several): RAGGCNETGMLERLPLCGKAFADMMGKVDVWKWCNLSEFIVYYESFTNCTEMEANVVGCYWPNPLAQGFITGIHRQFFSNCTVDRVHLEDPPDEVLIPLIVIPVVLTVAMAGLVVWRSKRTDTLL
T2 sequence (O60896 24-148, one chain of several): as above

Row | pIC50 [1] | pIC50 [2] | pEC50 [3] | pEC50 [4] | solubility at 18 h ([5]; bistrispropane buffer, pH 6.5) [µM] | solubility at 18 h ([5]; bistrispropane buffer, pH 7.5) [µM] | solubility at 18 h ([5]; bistrispropane buffer, pH 6.0) [µM] | solubility at 18 h ([5]; bistrispropane buffer, pH 7.0) [µM] | solubility at 18 h ([5]; bistrispropane buffer, pH 8.0) [µM] | solubility at 18 h ([5]; glycylglycine buffer, pH 3.0) [µM] | solubility at 18 h ([5]; glycylglycine buffer, pH 4.0) [µM] | solubility at 18 h ([5]; glycylglycine buffer, pH 5.0) [µM] | pEC50 [6] | SMILES
1 | 9.37 | 9.29 | 11.52 |  |  |  |  |  |  |  |  |  |  | CC(C)C[C@H](NC(=O)[C@H](C)NC(=O)[C@H](C)NC(=O)[C@@H](NC(=O)[C@H](CO)NC(=O)[C@H](CC(C)C)NC(=O)[C@H](CCC(=O)O)NC(=O)[C@H](CO)NC(=O)[C@H](C)NC(=O)[C@@H](N)CCC(=O)O)[C@@H](C)O)C(=O)NCC(=O)N[C@@H](CCCNC(=N)N)C(=O)N[C@@H](CC(C)C)C(=O)N[C@@H](CO)C(=O)N[C@@H](C)C(=O)N[C@@H](CCC(=O)O)C(=O)N[C@@H](CC(C)C)C(=O)N[C@@H](Cc1c[nH]cn1)C(=O)N[C@@H](CCC(=O)O)C(=O)N[C@@H](CC(C)C)C(=O)N[C@@H](C)C(=O)N[C@H](C(=O)N[C@@H](CC(C)C)C(=O)N1CCC[C@H]1C(=O)N[C@@H](CCCNC(=N)N)C(=O)N[C@H](C(=O)N[C@@H](CCC(=O)O)C(=O)N[C@H](C(=O)NCC(=O)N1CCC[C@H]1C(=O)N[C@@H](CCC(=O)O)C(=O)N[C@@H](CO)C(=O)N1CCC[C@H]1C(N)=O)[C@@H](C)O)[C@@H](C)O)[C@@H](C)O [Ex. #1, mimylin] (H-EASELSTAALGRLSAELHELATLPRTETGPESP-NH2)
2 | 9.38 | 9.40 | 11.00 | 11.15 | ≥ 200 | ≥ 200 | ≥ 200 | ≥ 200 | ≥ 200 | ≥ 200 | 218 (≈ 822 µg/mL) | ≥ 200 |  | CC[C@H](C)[C@H](NC(=O)[C@H](C)NC(=O)[C@@H](NC(=O)[C@H](CO)NC(=O)[C@@H](NC(=O)[C@H](CCC(=O)O)NC(=O)[C@H](CO)NC(=O)[C@H](C)NC(=O)[C@H](CCC(=O)O)NC(=O)CCCCCCCCCCCCCCCCC(=O)O)[C@@H](C)CC)[C@@H](C)O)C(=O)N[C@@H](CC(C)C)C(=O)NCC(=O)N[C@@H](CCCNC(=N)N)C(=O)N[C@@H](CC(C)C)C(=O)N[C@@H](CO)C(=O)N[C@@H](C)C(=O)N[C@@H](CCC(=O)O)C(=O)N[C@@H](CC(C)C)C(=O)N[C@@H](Cc1c[nH]cn1)C(=O)N[C@@H](CCC(=O)O)C(=O)N[C@@H](CC(C)C)C(=O)N[C@@H](C)C(=O)N[C@H](C(=O)N[C@@H](CC(C)C)C(=O)N1CCC[C@H]1C(=O)N[C@@H](CCCNC(=N)N)C(=O)N[C@H](C(=O)N[C@@H](CCC(=O)O)C(=O)N[C@H](C(=O)NCC(=O)N1CCC[C@H]1C(=O)N[C@@H](CCC(=O)O)C(=O)N[C@@H](CO)C(=O)N1CCC[C@H]1C(N)=O)[C@@H](C)O)[C@@H](C)O)[C@@H](C)O [compound 25, [N-terminal(C18 diacid), 5I, 9I]mimylin]
3 | 9.19 | 9.19 | 10.38 | 10.52 | ≥ 200 | ≥ 200 | ≥ 200 | ≥ 200 | ≥ 200 | ≥ 200 | ≥ 200 | ≥ 200 | 10.52 | CC(C)C[C@H](NC(=O)[C@H](CCC(=O)O)NC(=O)[C@H](Cc1c[nH]cn1)NC(=O)[C@H](CC(C)C)NC(=O)[C@H](CCC(=O)O)NC(=O)[C@H](C)NC(=O)[C@H](CO)NC(=O)[C@H](CC(C)C)NC(=O)[C@H](CCCNC(=N)N)NC(=O)CNC(=O)[C@H](CC(C)C)NC(=O)[C@@H](NC(=O)[C@H](C)NC(=O)[C@@H](NC(=O)[C@@H](NC(=O)[C@H](CC(C)C)NC(=O)[C@H](CCC(=O)O)NC(=O)[C@H](CO)NC(=O)[C@H](C)NC(=O)CC[C@H](NC(=O)CCCCCCCCCCCCCCCCC(=O)O)C(=O)O)[C@@H](C)O)[C@@H](C)O)C(C)C)C(=O)N[C@@H](C)C(=O)N[C@H](C(=O)N[C@@H](CC(C)C)C(=O)N1CCC[C@H]1C(=O)N[C@@H](CCCNC(=N)N)C(=O)N[C@H](C(=O)N[C@@H](CCC(=O)O)C(=O)N[C@H](C(=O)NCC(=O)N[C@@H](CO)C(=O)NCC(=O)N[C@H](C(=O)N1CCC[C@H]1C(N)=O)[C@@H](C)O)[C@@H](C)O)[C@@H](C)O)[C@@H](C)O [compound 94, [N-terminal(C18 diacid-gGlu), des1, 6T, 9V, 30S, 31G, 32T]mimylin] ({C18 diacid-γGlu}-ASELTTAVLGRLSAELHELATLPRTETGSGTP-NH2)
